Results as given in article PMC7901699, “Challenging inflammatory process at molecular, cellular and in vivo levels via some new pyrazolyl thiazolones” (Journal of Enzyme Inhibition and Medicinal Chemistry, 2021).
Entries after “also recorded” stand apart in the source; their conditions may differ.

Columns and labels:
human recombinant COX-2 = biological target: T1, human recombinant COX-2 (Homo sapiens, UniProt P35354); assay: In vitro COX-2 inhibition assay (colorimetric COX inhibitor screening kit, Cayman); format: biochemical; details: for SI (COX-1/ COX-2): IC50 (COX-1)/IC50 (COX-2); for IC50: mean of three determinations
T1 construct: purchased Cayman Chemicals Inc. 560131
T1 sequence (P35354 18-604): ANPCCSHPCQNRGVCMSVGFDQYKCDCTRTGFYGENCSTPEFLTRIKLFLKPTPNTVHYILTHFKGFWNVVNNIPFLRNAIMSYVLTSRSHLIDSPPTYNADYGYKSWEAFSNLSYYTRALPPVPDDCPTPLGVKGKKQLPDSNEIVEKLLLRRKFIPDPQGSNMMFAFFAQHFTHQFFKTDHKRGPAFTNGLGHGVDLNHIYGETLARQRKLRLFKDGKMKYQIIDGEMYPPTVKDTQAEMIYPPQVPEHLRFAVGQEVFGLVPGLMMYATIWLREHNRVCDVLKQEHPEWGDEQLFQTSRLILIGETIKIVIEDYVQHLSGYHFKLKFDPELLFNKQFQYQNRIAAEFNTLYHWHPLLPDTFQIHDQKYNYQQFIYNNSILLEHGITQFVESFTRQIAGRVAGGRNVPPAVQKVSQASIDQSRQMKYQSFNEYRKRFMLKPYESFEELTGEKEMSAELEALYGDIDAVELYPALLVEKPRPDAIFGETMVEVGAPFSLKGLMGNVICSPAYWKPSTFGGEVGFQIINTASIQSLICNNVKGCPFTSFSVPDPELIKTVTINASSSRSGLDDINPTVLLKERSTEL
Description: (§1) Both assays were carried out in compliance with the manufacturer’s instructions and in accordance to prior studies[29]^,[33].
(§2) IC50 values (μM) and selectivity indices (SI) were calculated.

15-LOX = biological target: T2, 15-LOX (Glycine max, UniProt P08170); assay: In vitro 15-LOX inhibition assay (lipoxygenase inhibitor screening kit, Cayman); format: biochemical; details: for IC50: mean of three determinations
T2 construct: purchased Cayman chemicals 760700
T2 sequence (P08170 1-839): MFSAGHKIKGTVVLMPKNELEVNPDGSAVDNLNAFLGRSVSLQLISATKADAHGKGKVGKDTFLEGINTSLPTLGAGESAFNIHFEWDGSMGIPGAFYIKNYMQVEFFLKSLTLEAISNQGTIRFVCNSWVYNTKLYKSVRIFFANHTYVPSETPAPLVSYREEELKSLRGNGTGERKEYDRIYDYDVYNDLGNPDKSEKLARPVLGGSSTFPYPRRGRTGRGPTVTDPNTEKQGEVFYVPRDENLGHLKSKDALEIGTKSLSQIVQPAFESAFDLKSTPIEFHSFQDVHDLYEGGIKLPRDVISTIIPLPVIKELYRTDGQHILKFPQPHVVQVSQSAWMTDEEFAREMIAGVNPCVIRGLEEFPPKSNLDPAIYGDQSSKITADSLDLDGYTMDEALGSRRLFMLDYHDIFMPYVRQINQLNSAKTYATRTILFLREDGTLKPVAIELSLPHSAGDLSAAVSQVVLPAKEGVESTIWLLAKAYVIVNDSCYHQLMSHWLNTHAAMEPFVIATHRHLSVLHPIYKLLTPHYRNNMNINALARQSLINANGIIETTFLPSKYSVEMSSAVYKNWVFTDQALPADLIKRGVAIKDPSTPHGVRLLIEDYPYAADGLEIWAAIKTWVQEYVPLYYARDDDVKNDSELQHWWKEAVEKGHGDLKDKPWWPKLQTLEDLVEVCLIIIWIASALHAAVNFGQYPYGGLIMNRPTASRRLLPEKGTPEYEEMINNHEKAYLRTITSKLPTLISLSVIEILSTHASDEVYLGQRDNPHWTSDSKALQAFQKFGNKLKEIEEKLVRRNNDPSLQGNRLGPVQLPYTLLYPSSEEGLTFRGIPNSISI
Description: as §1, §2

ovine COX-1 = biological target: T3, ovine COX-1 (Ovis aries, UniProt P05979); assay: In vitro COX-1 inhibition assay (colorimetric COX inhibitor screening kit, Cayman); format: biochemical; details: mean of three determinations
T3 construct: purchased Cayman Chemicals Inc. 560131
T3 sequence (P05979 25-600): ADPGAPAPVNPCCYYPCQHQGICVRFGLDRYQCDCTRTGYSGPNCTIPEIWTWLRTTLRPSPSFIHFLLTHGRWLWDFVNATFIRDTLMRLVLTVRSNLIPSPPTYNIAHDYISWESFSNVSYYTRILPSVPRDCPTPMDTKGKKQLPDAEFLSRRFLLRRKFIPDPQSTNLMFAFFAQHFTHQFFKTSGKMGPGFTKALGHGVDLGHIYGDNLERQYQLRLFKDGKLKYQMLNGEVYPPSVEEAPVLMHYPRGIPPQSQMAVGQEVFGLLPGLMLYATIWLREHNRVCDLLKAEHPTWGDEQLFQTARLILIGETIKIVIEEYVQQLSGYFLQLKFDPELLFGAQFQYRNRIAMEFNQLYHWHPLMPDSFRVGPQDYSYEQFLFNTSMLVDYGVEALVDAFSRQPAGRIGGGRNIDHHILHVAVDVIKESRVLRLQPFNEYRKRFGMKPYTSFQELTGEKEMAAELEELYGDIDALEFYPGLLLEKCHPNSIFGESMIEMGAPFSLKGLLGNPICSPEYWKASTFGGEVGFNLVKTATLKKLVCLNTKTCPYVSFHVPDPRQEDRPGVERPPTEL
Description: as §1, §2

[1] = system: cotton pellet-induced granuloma; assay: Cotton pellet-induced granuloma assay (chronic inflammation model); details: oral 5 mg/kg daily, pellets excised on 8th day, vs diclofenac sodium and celecoxib
[2] = system: formalin-induced rat paw oedema; assay: Formalin-induced paw oedema test (acute inflammation model); format: in vivo, Wistar rats; details: oral 5 mg/kg once daily for seven days; oedema 4 h after formalin; vs diclofenac sodium and celecoxib 5 mg/kg
Description: A freshly prepared 5% formalin solution (prepared from 37% formaldehyde and saline (Merck, Germany)) was used as a phlogistic agent. Test and reference compounds (5 mg/kg body weight) were dissolved in DMSO and given orally with gastric gavage once per day for seven consecutive days, whereas DMSO was administered to the control group. On the 8th day, the initial paw volume was determined by a Vernier calliper. Then, a subcutaneous injection of 40 μl formalin was introduced into the right hind paw of all groups under light ether anaesthesia. The paw volume was measured 4 h after the formalin injection and the oedema volume was calculated by the difference in paw volume before and 4 h after the formalin injection. The percentage inhibition of oedema (or % protection against inflammation) was calculated for each compound as previously reported[34]^,[35].

rat stomach = assay: Gastric ulcerogenic activity and histopathological examination; details: stomach removed on 8th day of administration, 5 mg/kg oral
Description: The same compounds were tested for chronic gastric ulcerative symptoms[37]^,[38]. Rat stomach was removed on the 8th day of drug administration. Stomach was opened through the greater curvature, washed and kept in saline. Gross examination was carried out for any signs of haemorrhage, hyperaemia, haemorrhagic erosion or ulcers. Moreover, histopathological inspection was conducted to verify the extent of inflammatory reaction in mucosal layers[28]^,[38].

Structure (SMILES) | SI (COX-1/ COX-2) (human recombinant COX-2) | IC50 (human recombinant COX-2) | IC50 (15-LOX) | 15-LOX inhibition, times the activity of quercetin (15-LOX; relative to quercetin) | IC50 (ovine COX-1) | Inhibition of cotton pellet granuloma weight (in words) ([1]; 5 mg/kg) | Inhibition of formalin-induced rat paw oedema (in words) [2] | Gross observation of isolated rat stomachs (rat stomach; 5 mg/kg) | Inhibition of cotton pellet granuloma weight (in words) [1] | 15-LOX inhibitory activity as % of the activity of quercetin (15-LOX; relative to quercetin) | Gross observation of isolated rat stomachs (rat stomach) | Histopathological examination of stomach gastric layers (rat stomach; H&E, 5 mg/kg)
Cc1nn(-c2ccccc2)c(Cl)c1/C=C1\SC(N2CCCCC2)=NC1=O [Compound 1, (Z)-5-((5-chloro-3-methyl-1-phenyl-1H-pyrazol-4-yl)methylene)-2-(piperidin-1-yl)thiazol-4(5H)-one] | 59 | 0.11 µM | 1.96 µM | 1.7 times | 6.56 µM | – | – | – | – | – | – | –
Cc1nn(-c2ccccc2)c(Cl)c1/C=C1\SC(N2CCOCC2)=NC1=O [Compound 2, (Z)-5-((5-chloro-3-methyl-1-phenyl-1H-pyrazol-4-yl)methylene)-2-morpholinothiazol-4(5H)-one] | 90 | 0.09 µM | 2.42 µM | – | 8.14 µM | superior anti-inflammatory activity, when compared to diclofenac and celecoxib; also recorded: increased inhibition of granuloma weight in comparison to both celecoxib and diclofenac | as effective as either diclofenac or celecoxib | normal texture | – | – | – | –
O=C1N=C(N2CCCCC2)S/C1=C\c1cn(-c2ccccc2)nc1-c1ccccc1 [Compound 3, (Z)-5-((1,3-diphenyl-1H-pyrazol-4-yl)methylene)-2-(piperidin-1-yl)thiazol-4(5H)-one] | 41 | 0.19 µM | 2.54 µM | – | 7.86 µM | – | – | – | – | – | – | –
Cc1ccc(-c2nn(-c3ccccc3)cc2/C=C2\SC(N3CCCCC3)=NC2=O)cc1 [Compound 5, (Z)-5-((1-phenyl-3-(p-tolyl)-1H-pyrazol-4-yl)methylene)-2-(piperidin-1-yl)thiazol-4(5H)-one] | 27 | 0.34 µM | 4.23 µM | – | 9.23 µM | – | – | – | – | – | – | –
Cc1ccc(-c2nn(-c3ccccc3)cc2/C=C2\SC(N3CCOCC3)=NC2=O)cc1 [Compound 6, (Z)-2-morpholino-5-((1-phenyl-3-(p-tolyl)-1H-pyrazol-4-yl)methylene)thiazol-4(5H)-one] | 69 | 0.18 µM | 2.85 µM | – | 12.5 µM | – | – | – | – | – | – | –
O=C1N=C(N2CCCCC2)S/C1=C\c1cn(-c2ccccc2)nc1-c1ccc(Br)cc1 [Compound 9, (Z)-5-((3-(4-bromophenyl)-1-phenyl-1H-pyrazol-4-yl)methylene)-2-(piperidin-1-yl)thiazol-4(5H)-one] | 107 | 0.13 µM | 5.64 µM | – | 14 µM | – | as effective as either diclofenac or celecoxib | – | only superior to celecoxib | 59% | – | –
O=C1N=C(N2CCOCC2)S/C1=C\c1cn(-c2ccccc2)nc1-c1ccc(Br)cc1 [Compound 10, (Z)-5-((3-(4-bromophenyl)-1-phenyl-1H-pyrazol-4-yl)methylene)-2-morpholinothiazol-4(5H)-one] | 103 | 0.11 µM | 4.52 µM | – | 11.3 µM | – | as effective as either diclofenac or celecoxib | – | only superior to celecoxib | 74% | variable levels of hyperaemia without gross ulceration | both edoema and inflammatory changes in stomach mucosal surface
Cc1ccc(Cl)c(Nc2ccccc2C(=O)O)c1Cl [Meclofenamate Na, reference compound] | – | – | 5.64 µM | – | – | – | – | – | – | – | – | –
